Results from the OligoGym collection.
Several values for one entry are separate records, joined by “and”; a condition that tells them apart may be missing. Identical values can stand only once. After the bases stand the sugars from the 5' end (letter, count) and the backbone: PS all phosphorothioate, else s phosphorothioate and o phosphodiester by linkage. Methylation of C is not given here. e = 2'-O-(2-methoxyethyl) (MOE); k = constrained ethyl (cEt); d = 2'-deoxy (DNA)

Biological target: SOD1
Settings: ASO

| Sequence | target mRNA inhibition (HepG2, 3 µM) [%] | target mRNA inhibition (HepG2, 4 µM) [%] | further results |
| --- | --- | --- | --- |
| CTTTCTTCATTTCCACC (sugars e3 k2 d7 k2 e3, PS) | 11 |  |  |
| CTTTGGCCCACCGTGTTTTC (sugars e5 d10 e5, PS) |  |  | target mRNA inhibition (HepG2, 5 µM): 31% and 15% |
| GAACATGGAATCCATGC (sugars e3 k2 d7 k2 e3, PS) | 9 |  |  |
| GAATGACAAAGAAATTCTGA (sugars e5 d10 e5, PS) |  |  | target mRNA inhibition (HepG2, 5 µM): 0% |
| GAATGTTTATTGGGCGA (sugars e2 k2 d9 k2 e2, PS) |  | 65 |  |
| GAATGTTTATTGGGCGA (sugars e3 k2 d7 k2 e3, PS) | 14 |  |  |
| GACAAGTTTAATACCCA (sugars e2 k2 d9 k2 e2, PS) |  |  | target mRNA inhibition (HepG2, 5 µM): 59% |
| GACCACCAGTGTGCGGCCAA (sugars e5 d10 e5, PS) |  |  | target mRNA inhibition (HepG2, 5 µM): 16% |
| GACTACATCCAAGGGAA (sugars e2 k2 d8 k2 e3, PS) |  | 50 |  |
| GACTACATCCAAGGGAA (sugars e2 k2 d9 k2 e2, PS) |  | 57 |  |
| GAGATCACAGAATCTTC (sugars e3 k2 d7 k2 e3, PS) | 13 |  |  |
| GAGGATTAAAGTGAGGA (sugars e3 k2 d7 k2 e3, PS) | 40 |  |  |
| GATACATTTCTACAGC (sugars kekeddddddddekek, linkages s1 o3 s8 o1 s2) |  |  | target mRNA inhibition (A431, 0.12 µM): 12%; target mRNA inhibition (A431, 0.6 µM): 22%; target mRNA inhibition (A431, 3 µM): 21%; target mRNA inhibition (A431, 15 µM): 34%; target mRNA inhibition (HepG2, 0.222 µM): 54%; target mRNA inhibition (HepG2, 0.667 µM): 78%; target mRNA inhibition (HepG2, 2 µM): 89%; target mRNA inhibition (HepG2, 6 µM): 96% |
| GATACATTTCTACAGCTAGC (sugars e5 d10 e5, PS) |  | 78 | target mRNA inhibition (HepG2, 12 µM): 90% |
| GATCATAAATCAGTTTC (sugars e2 k2 d9 k2 e2, PS) |  |  | target mRNA inhibition (HepG2, 5 µM): 38% |
| GATCCCAATTACACCAC (sugars e2 k2 d9 k2 e2, PS) |  | 58 |  |
| GCAAAATACAGGTCATT (sugars e3 k2 d7 k2 e3, PS) | 43 |  |  |
| GCACTGGGCCGTCGCCCTTC (sugars e5 d10 e5, PS) |  | 14 |  |
| GCCATACAGGGTTTTTA (sugars e3 k2 d7 k2 e3, PS) | 11 |  |  |
| GCCCACTCTGGCCCCAA (sugars e3 k2 d7 k2 e3, PS) | 22 |  |  |
| GCCCTTCAGCACGCACA (sugars e2 k2 d8 k2 e3, PS) | 74 | 75 | target mRNA inhibition (HepG2, 0.1875 µM): 8%; target mRNA inhibition (HepG2, 0.75 µM): 38%; target mRNA inhibition (HepG2, 12 µM): 96% |
| GCCCTTCAGCACGCACA (sugars e2 k2 d9 k2 e2, PS) |  | 60 |  |

| Sequence | target mRNA inhibition (HepG2, 3 µM) [%] | target mRNA inhibition (HepG2, 4 µM) [%] | further results |
| --- | --- | --- | --- |
| GCCGTCGCCCTTCAGCA (sugars e2 k2 d9 k2 e2, PS) |  | 57 |  |
| GCCTCAGACTACATCCA (sugars e2 k2 d9 k2 e2, PS) | 87 | 82 | target mRNA inhibition (HepG2, 0.1875 µM): 34%; target mRNA inhibition (HepG2, 0.75 µM): 59%; target mRNA inhibition (HepG2, 12 µM): 95% |
| GCGACTACTTTATAGGCCAG (sugars e5 d10 e5, PS) |  | 19 |  |
| GCGATCCCAATTACACC (sugars e2 k2 d8 k2 e3, PS) |  | 31 |  |
| GCGCCTCGCCCACTCTGGCC (sugars e5 d10 e5, PS) |  | 33 |  |
| GCTTCCCCACACCTTCA (sugars e3 k2 d7 k2 e3, PS) | 36 |  |  |
| GGAATGTTTATTGGGCG (sugars e3 k2 d7 k2 e3, PS) | 15 |  |  |
| GGATAACAGATGAGTTA (sugars e2 k2 d8 k2 e3, PS) |  | 63 |  |
| GGATAACAGATGAGTTA (sugars e3 k2 d7 k2 e3, PS) | 32 |  |  |
| GGATACATTTCTACAGC (sugars e2 k2 d8 k2 e3, PS) | 72 | 75 | target mRNA inhibition (HepG2, 0.1875 µM): 4%; target mRNA inhibition (HepG2, 0.75 µM): 49%; target mRNA inhibition (HepG2, 12 µM): 87% |
| GGATAGAGGATTAAAGT (sugars e3 k2 d7 k2 e3, PS) | 14 |  |  |
| GGATTCTTTTAATAGCC (sugars e2 k2 d8 k2 e3, PS) |  |  | target mRNA inhibition (HepG2, 5 µM): 14% |
| GGCCCACCGTGTTTTCTGGA (sugars e5 d10 e5, PS) |  |  | target mRNA inhibition (HepG2, 5 µM): 46% and 41% |
| GGCGATCCCAATTACAC (sugars e3 k2 d7 k2 e3, PS) | 9 |  |  |
| GGGCGATCCCAATTACA (sugars e2 k2 d8 k2 e3, PS) |  | 30 |  |
| GGGCGATCCCAATTACA (sugars e2 k2 d9 k2 e2, PS) |  | 30 |  |
| GGGCGATCCCAATTACA (sugars e3 k2 d7 k2 e3, PS) | 18 |  |  |
| GTCATTGAAACAGACAT (sugars e2 k2 d9 k2 e2, PS) |  |  | target mRNA inhibition (HepG2, 5 µM): 15% |
| GTCGCCATAACTCGCTAGGC (sugars e5 d10 e5, PS) | 39 | 40 | target mRNA inhibition (HepG2, 0.1875 µM): 10%; target mRNA inhibition (HepG2, 0.75 µM): 21%; target mRNA inhibition (HepG2, 12 µM): 90% |
| GTCGCCCTTCAGCACGC (sugars e3 k2 d7 k2 e3, PS) | 28 |  |  |
| GTCTGGCAAAATACAGG (sugars e3 k2 d7 k2 e3, PS) | 24 |  |  |
